Measurements reported in patent publication US8962574B2 (Boehringer Ingelheim International GmbH, priority 2008, dated 2015).
“And” between values parts separate entries of the source, which are not always exact repeats. Identical values can stand only once. Like-named read-outs stand apart in the source and are kept apart here.

Columns and labels:
[1] = test system: patients with atrial fibrillation
Description: PETRO-Ex began while the PETRO study was ongoing and investigators were initially kept blinded to patient treatment group until PETRO was completed. Unblinding investigators to patient treatment was possible thereafter.
Data were summarized descriptively; no hypothesis was to be tested. Events were analyzed on the basis of the treatment at onset. Incidences were reported as number of patients with events as well as normalized to 100 patient-years on the respective treatment.
Written, informed consent was obtained from all patients.
Patients who completed PETRO on 50 mg b.i.d. were switched to 150 mg q.d. upon entry in the PETRO-Ex study (N=93 patients). […] Patients who were down titrated to 50 mg q.d. based on a glomerular filtration rate ≦50 mL/min during PETRO were excluded from the long-term trial; patients down-titrated in other dose levels remained on the q.d. treatment at that dose.
The total exposure reflects both trials, PETRO and PETRO-Ex, together.

[2] = test system: patients with chronic atrial fibrillation; experiment: PETRO phase 2 12-week dose finding study; format: in vivo, human; conditions: 12 weeks
From the text: Primary endpoints were bleeding events and changes in D-dimer. […] Minor bleeding was dose related.

[3] = Clinical pharmacokinetics and pharmacodynamics of dabigatran etexilate; format: in vivo; conditions: after dosing
From the text: Ezekowitz M D, et al., Dabigatran with or without concomitant aspirin compared with warfarin alone in patients with nonvalvular atrial fibrillation (PETRO study), Am. […] The PETRO study is described below.
As noted above, management of warfarin therapy is complex, and failure to adequately monitor patients is associated with risk. […] It also interacts with many common foods, drugs and alcohol which alter its therapeutic effect, putting patients at risk of either a bleeding or thrombotic event. Therefore, warfarin therapy requires careful individualized dosing and frequent monitoring. The significant limitations of VKAs have created a need for an oral anticoagulant with a rapid onset of action, minimal drug interactions, and a predictable anticoagulation effect that needs no monitoring.
Peak levels are seen within 2-3 hours of oral administration. […] Steady-state is reached within 2-3 days with a twice daily regimen. […] The remainder undergoes conjugation with glucuronic acid to form acylglucuronides which are excreted primarily in the bile.

[4] = individual patients with LFT abnormalities, one table line per patient (age c0, sex c1), ^# = with concomitant Bilirubin elevation to >2xULN

CCCCCCOC(=O)NC(=N)c1ccc(NCc2nc3cc(C(=O)N(CCC(=O)OCC)c4ccccn4)ccc3n2C)cc1 [dabigatran etexilate, 1-methyl-2-[N-[4-(N-n-hexyloxycarbonylamidino)phenyl]aminomethyl]benzimidazol-5-ylcarboxylic acid-N-(2-pyridyl)-N-(2-ethoxycarbonylethyl)amides]
ALT or AST >2xULN, subjects with event ([1]; 50 mg b.i.d.): 0 | ALT or AST >3xULN and Bili >2xULN within 30 days, subjects with event ([1]; 50 mg b.i.d.): 0 | ALT or AST >3xULN, subjects with event ([1]; 50 mg b.i.d.): 0 | ALT or AST >5xULN, subjects with event ([1]; 50 mg b.i.d.): 0 | Adverse Events leading to premature discontinuation, rate ([1]; 50 mg b.i.d.): 21.3 % per year | Adverse Events leading to premature discontinuation, subjects with event ([1]; 50 mg b.i.d.): 5 | MI, subjects with event ([1]; 50 mg b.i.d.): 0 | Major Bleeds with aspirin, subjects with event ([1]; 50 mg b.i.d.): 0 | Major Bleeds without aspirin, subjects with event ([1]; 50 mg b.i.d.): 0 | Major Bleeds, subjects with event ([1]; 50 mg b.i.d.): 0 | Other MACE, subjects with event ([1]; 50 mg b.i.d.): 2 | Stroke and Systemic Thromboembolism, subjects with event ([1]; 50 mg b.i.d.): 3 | TIA, subjects with event ([1]; 50 mg b.i.d.): 0 | ALT or AST >2xULN, subjects with event ([1]; 50 mg q.d.): 0 | ALT or AST >3xULN and Bili >2xULN within 30 days, subjects with event ([1]; 50 mg q.d.): 0 | ALT or AST >3xULN, subjects with event ([1]; 50 mg q.d.): 0 | ALT or AST >5xULN, subjects with event ([1]; 50 mg q.d.): 0 | Adverse Events leading to premature discontinuation, subjects with event ([1]; 50 mg q.d.): 0 | MI, subjects with event ([1]; 50 mg q.d.): 0 | Major Bleeds with aspirin, subjects with event ([1]; 50 mg q.d.): 0 | Major Bleeds without aspirin, subjects with event ([1]; 50 mg q.d.): 0 | Major Bleeds, subjects with event ([1]; 50 mg q.d.): 0 | Other MACE, subjects with event ([1]; 50 mg q.d.): 0 | Stroke and Systemic Thromboembolism, subjects with event ([1]; 50 mg q.d.): 0 | TIA, subjects with event ([1]; 50 mg q.d.): 0 | ALT or AST >2xULN, rate ([1]; 150 mg b.i.d.): 3.1 % per year | ALT or AST >2xULN, subjects with event ([1]; 150 mg b.i.d.): 21 | ALT or AST >3xULN and Bili >2xULN within 30 days, rate ([1]; 150 mg b.i.d.): 0.4 % per year | ALT or AST >3xULN and Bili >2xULN within 30 days, subjects with event ([1]; 150 mg b.i.d.): 3 | ALT or AST >3xULN, rate ([1]; 150 mg b.i.d.): 1.9 % per year | ALT or AST >3xULN, subjects with event ([1]; 150 mg b.i.d.): 13 | ALT or AST >5xULN, rate ([1]; 150 mg b.i.d.): 1.0 % per year | ALT or AST >5xULN, subjects with event ([1]; 150 mg b.i.d.): 7 | Adverse Events leading to premature discontinuation, rate ([1]; 150 mg b.i.d.): 9.8 % per year | Adverse Events leading to premature discontinuation, subjects with event ([1]; 150 mg b.i.d.): 67 | MI, subjects with event ([1]; 150 mg b.i.d.): 6 | Major Bleeds with aspirin, rate ([1]; 150 mg b.i.d.): 8.7 % per year | Major Bleeds with aspirin, subjects with event ([1]; 150 mg b.i.d.): 11 | Major Bleeds without aspirin, rate ([1]; 150 mg b.i.d.): 3.2 % per year | Major Bleeds without aspirin, subjects with event ([1]; 150 mg b.i.d.): 18 | Major Bleeds, rate ([1]; 150 mg b.i.d.): 4.2 % per year | Major Bleeds, subjects with event ([1]; 150 mg b.i.d.): 29 | Other MACE, subjects with event ([1]; 150 mg b.i.d.): 7 | Stroke and Systemic Thromboembolism, subjects with event ([1]; 150 mg b.i.d.): 7 | TIA, subjects with event ([1]; 150 mg b.i.d.): 1 | ALT or AST >2xULN, rate ([1]; 150 mg q.d.): 3.4 % per year | ALT or AST >2xULN, subjects with event ([1]; 150 mg q.d.): 2 | ALT or AST >3xULN and Bili >2xULN within 30 days, subjects with event ([1]; 150 mg q.d.): 0 | ALT or AST >3xULN, subjects with event ([1]; 150 mg q.d.): 0 | ALT or AST >5xULN, subjects with event ([1]; 150 mg q.d.): 0 | Adverse Events leading to premature discontinuation, rate ([1]; 150 mg q.d.): 13.7 % per year | Adverse Events leading to premature discontinuation, subjects with event ([1]; 150 mg q.d.): 8 | MI, subjects with event ([1]; 150 mg q.d.): 0 | Major Bleeds with aspirin, subjects with event ([1]; 150 mg q.d.): 0 | Major Bleeds without aspirin, rate ([1]; 150 mg q.d.): 6.5 % per year | Major Bleeds without aspirin, subjects with event ([1]; 150 mg q.d.): 3 | Major Bleeds, rate ([1]; 150 mg q.d.): 5.1 % per year | Major Bleeds, subjects with event ([1]; 150 mg q.d.): 3 | Other MACE, subjects with event ([1]; 150 mg q.d.): 0 | Stroke and Systemic Thromboembolism, subjects with event ([1]; 150 mg q.d.): 3 | TIA, subjects with event ([1]; 150 mg q.d.): 0 | ALT or AST >2xULN, rate ([1]; 300 mg b.i.d.): 4.9 % per year | ALT or AST >2xULN, subjects with event ([1]; 300 mg b.i.d.): 4 | ALT or AST >3xULN and Bili >2xULN within 30 days, subjects with event ([1]; 300 mg b.i.d.): 0 | ALT or AST >3xULN, rate ([1]; 300 mg b.i.d.): 2.4 % per year | ALT or AST >3xULN, subjects with event ([1]; 300 mg b.i.d.): 2 | ALT or AST >5xULN, rate ([1]; 300 mg b.i.d.): 1.2 % per year | ALT or AST >5xULN, subjects with event ([1]; 300 mg b.i.d.): 1 | Adverse Events leading to premature discontinuation, rate ([1]; 300 mg b.i.d.): 25.6 % per year | Adverse Events leading to premature discontinuation, subjects with event ([1]; 300 mg b.i.d.): 21 | MI, subjects with event ([1]; 300 mg b.i.d.): 0 | Major Bleeds with aspirin, rate ([1]; 300 mg b.i.d.): 32.7 % per year | Major Bleeds with aspirin, subjects with event ([1]; 300 mg b.i.d.): 6 | Major Bleeds without aspirin, rate ([1]; 300 mg b.i.d.): 6.3 % per year | Major Bleeds without aspirin, subjects with event ([1]; 300 mg b.i.d.): 4 | Major Bleeds, rate ([1]; 300 mg b.i.d.): 12.2 % per year | Major Bleeds, subjects with event ([1]; 300 mg b.i.d.): 10 | Other MACE, subjects with event ([1]; 300 mg b.i.d.): 1 | Stroke and Systemic Thromboembolism, subjects with event ([1]; 300 mg b.i.d.): 1 | TIA, subjects with event ([1]; 300 mg b.i.d.): 0 | ALT or AST >2xULN, rate ([1]; 300 mg q.d.): 1.5 % per year | ALT or AST >2xULN, subjects with event ([1]; 300 mg q.d.): 3 | ALT or AST >3xULN and Bili >2xULN within 30 days, rate ([1]; 300 mg q.d.): 0.5 % per year | ALT or AST >3xULN and Bili >2xULN within 30 days, subjects with event ([1]; 300 mg q.d.): 1 | ALT or AST >3xULN, rate ([1]; 300 mg q.d.): 1.5 % per year | ALT or AST >3xULN, subjects with event ([1]; 300 mg q.d.): 3 | ALT or AST >5xULN, rate ([1]; 300 mg q.d.): 1.5 % per year | ALT or AST >5xULN, subjects with event ([1]; 300 mg q.d.): 3 | Adverse Events leading to premature discontinuation, rate ([1]; 300 mg q.d.): 9.6 % per year | Adverse Events leading to premature discontinuation, subjects with event ([1]; 300 mg q.d.): 19 | MI, subjects with event ([1]; 300 mg q.d.): 1 | Major Bleeds with aspirin, rate ([1]; 300 mg q.d.): 3.6 % per year | Major Bleeds with aspirin, subjects with event ([1]; 300 mg q.d.): 2 | Major Bleeds without aspirin, rate ([1]; 300 mg q.d.): 2.1 % per year | Major Bleeds without aspirin, subjects with event ([1]; 300 mg q.d.): 3 | Major Bleeds, rate ([1]; 300 mg q.d.): 2.5 % per year | Major Bleeds, subjects with event ([1]; 300 mg q.d.): 5 | Other MACE, subjects with event ([1]; 300 mg q.d.): 1 | Stroke and Systemic Thromboembolism, subjects with event ([1]; 300 mg q.d.): 5 | TIA, subjects with event ([1]; 300 mg q.d.): 0 | Serious adverse events: cardiac disorders, number of patients ([1]; PETRO-Ex): 80 | Serious adverse events: gastrointestinal disorders, number of patients ([1]; PETRO-Ex): 28 | Serious adverse events: infections, number of patients ([1]; PETRO-Ex): 34 | Serious adverse events: nervous system disorders, number of patients ([1]; PETRO-Ex): 33 | Serious adverse events, number of patients ([1]; PETRO-Ex, including bleeding and thrombotic events): 184 | ALT or AST >2xULN, rate ([1]; Total (all doses)): 2.9 % per year | ALT or AST >2xULN, subjects with event ([1]; Total (all doses)): 30 | ALT or AST >3xULN and Bili >2xULN within 30 days, rate ([1]; Total (all doses)): 0.4 % per year | ALT or AST >3xULN and Bili >2xULN within 30 days, subjects with event ([1]; Total (all doses)): four | ALT or AST >3xULN, rate ([1]; Total (all doses)): 1.7 % per year | ALT or AST >3xULN, subjects with event ([1]; Total (all doses)): 18 | ALT or AST >5xULN, rate ([1]; Total (all doses)): 1.1 % per year | ALT or AST >5xULN, subjects with event ([1]; Total (all doses)): 11 | Adverse Events leading to premature discontinuation, rate ([1]; Total (all doses)): 11.5 % per year | Adverse Events leading to premature discontinuation, subjects with event ([1]; Total (all doses)): 120 | MI, subjects with event ([1]; Total (all doses)): 7 | Major Bleeds with aspirin, rate ([1]; Total (all doses)): 8.5 % per year | Major Bleeds with aspirin, subjects with event ([1]; Total (all doses)): 19 | Major Bleeds without aspirin, rate ([1]; Total (all doses)): 3.2 % per year | Major Bleeds without aspirin, subjects with event ([1]; Total (all doses)): 26 | Major Bleeds, rate ([1]; Total (all doses)): 4.2 % per year | Major Bleeds, subjects with event ([1]; Total (all doses)): 44 | Other MACE, subjects with event ([1]; Total (all doses)): 11 | Stroke and Systemic Thromboembolism, subjects with event ([1]; Total (all doses)): 20 | TIA, subjects with event ([1]; Total (all doses)): 1 | ALT or AST >3xULN and Bili >2xULN within 30 days, subjects with event ([1]; Total (all doses), listed as Dabigatran etexilate): 4 | Risk ratio of bleeding event rate on concomitant aspirin vs. without ([1]; in vivo): 2.70 | Final Outcome/Comment of LFT abnormality ([1]; individual patients with LFT abnormalities, one table line per patient (age c0, sex c1)): Recovered | LFT abnormality ALT/ULN [1, 4]: >5x xULN (4×) and >5x^# xULN (2×) and >3x xULN (5×) and >3x^# xULN | LFT abnormality AST/ULN [1, 4]: >5x^# xULN (4×) and >5x xULN (4×) and >3x xULN (5×) | Final Outcome/Comment of LFT abnormality ([1]; individual patients with LFT abnormalities, one table line per patient (age c0, sex c1), listed as Dabigatran etexilate): Fatal | Major bleeding events ([2]; 300 mg b.i.d. plus ASA groups): 6% | Major bleeding events, number ([2]; 300 mg b.i.d. plus ASA groups): Four | Minor bleeding ([2]; 50, 150, 300 mg b.i.d.): dose related | Onset of anticoagulant effect [3]: within one hour
